According to patent publication US8420145B2, “Isosorbide derivatives and their use as flavor modifiers, tastants, and taste enhancers” (Senomyx, Inc., priority 2008, dated 2013):
Values joined by “and” are separate entries in the source; they are usually repeats but may differ in a detail not shown here. Equal values may be shown once.

Legend:
[1] = Time-intensity testing: panelists rate umami intensity over 70 seconds; type: in vivo, human; conditions: for Average Intensity-at-Max (umami intensity): scale 0 to 100
Description: Overview: Panelists Evaluate Various Solutions for Umami Intensity Over Time.
General procedure: Samples presented to panelists include various concentrations of MSG and compounds of interest. Samples may contain 0.1% ethanol to assist in dissolving compounds into solution. Samples are three-digit blind coded and served in 20 ml volumes. Samples are presented to panelists in randomized, counterbalanced order. All data is collected using the Compusense five software program. Umami intensity is rated on a scale from 0 to 100 (0=no umami intensity; 100=strong umami intensity). Panelists sip a sample and begin rating umami intensity. Panelists move the mouse on the horizontal scale to correspond to the umami intensity they perceive. Panelists continue rating the intensity for 70 seconds, and then expectorate the sample. The software program records an intensity score for each panelist for each 1 second period during the sample evaluation.
After tasting each sample, panelists sip and swish water in the mouth for a few seconds and expectorate. They may repeat this several times. Panelists wait 30 minutes before tasting the next sample.
Data analysis: Time-intensity curves are created for each of the samples and various parameters of the test are compared statistically.
To create the graphical representation of the sample: For each of the 70 seconds of the evaluation, panelists individual scores are averaged and presented graphically. For example, each panelist's intensity score at time=0 seconds is averaged and plotted. The same calculation is made for each of the 70 seconds to create the time-intensity curve.
To evaluate the Time to Maximum Intensity parameter: A time-intensity curve is created for each panelist. […] The specific time scores for each panelist are averaged. Next, the average scores for the various samples are compared using ANOVA, and multiple comparisons are performed using Tukey's Honestly Significant Difference test at alpha=0.05.

[2] = system: un-induced I-17 cells; experiment: FLIPR assay on un-induced I-17 cells (no mifepristone, receptor not expressed); type: cell-based
Description: In order to determine the dependency of hT1R1/hT1R3 for the cell response to different stimuli, selected compounds were subjected to a similar analysis on I-17 cells that had not been induced for receptor expression with mifepristone (designated as un-induced I-17 cells). […] Compounds were presented to un-induced umami cells at 10 μM-or three times the maximum stimulation used in the dose-response analysis.

[3] = 15 ppm (41.62 uM) in Low Sodium Buffer pH 7.1, n = 33
[4] = 2.5 ppm (6.86 uM) in Low Sodium Buffer pH 7.1, n = 36
[5] = 12 mM in Low Sodium Buffer pH 7.1, n = 33
[6] = 12 mM in Low Sodium Buffer pH 7.1, n = 36
[7] = 16 mM in Low Sodium Buffer pH 7.1, n = 36

In the case of `O=C(N[C@H]1CO[C@H]2[C@@H]1OC[C@@H]2n1cc(CC2CCCCC2)nn1)C1CC1` [Example 1, N-((3S,3αR,6S,6αR)-6-(4(cyclohexylmethyl)-1H-1,2,3-triazol-1-yl)-hexahydrofuro[13,2-b]furan-3-yl)cyclopropanecarboxamide], the “Average Time-to-Max (time to maximum umami intensity)” value (shortened to “Average Time-to-Max”) [1, 3] is reported as 14.9 s, the “average intensity at maximum compared with Sample 1 (12 mM MSG), Tukey's HSD test” value ([1]; 15 ppm (41.62 uM), p<0.05) is reported as “significantly more savory” and the “average intensity at maximum compared with Sample 2 (16 mM MSG), Tukey's HSD test” value ([1]; 15 ppm (41.62 uM), p>0.1) is reported as “not significantly different”. For the same compound, the “average time to maximum intensity compared with Sample 2 (16 mM MSG), Tukey's HSD test” value ([1]; 15 ppm (41.62 uM), p>0.1) was “not significantly different” and the “Average Intensity-at-Max (umami intensity)” value (“Average Intensity-at-Max” below) [1, 3] was 57.
With `O=C(CCCC1CCCCC1)N[C@H]1CO[C@H]2[C@@H]1OC[C@@H]2NC(=O)C1CC1` [Example 29, N-((3S,3αR,6S,6αR)-6-(4cyclohexylbutanamido)hexahydrofuro-[3,2-b]furan-3-yl)cyclopropanecarboxamide] the “average time to maximum intensity compared with Sample 4 (12 mM MSG) and Sample 5 (16 mM MSG), Tukey's HSD test” value ([1]; 2.5 ppm (6.86 uM)) was “not significantly different”, the “Average Time-to-Max” value [1, 4] was 18.3 s and the “average intensity at max compared with Sample 4 (12 mM MSG) or Sample 5 (16 mM MSG), Tukey's HSD test” value ([1]; 2.5 ppm (6.86 uM), p>0.1) was “not significantly different”. For the same compound, the “Average Intensity-at-Max” value [1, 4] was 57.9 and the melting point was 181.5 to 182.5 °C.
With `N[C@@H](CCC(=O)O)C(=O)[O-].[Na+]` [monosodium glutamate, Monosodium Glutamate] the “functional response in the FLIPR assay” value [2] was “do not show any functional response”, the “Average Time-to-Max” value [1, 5] was 15.9 s and the “Average Time-to-Max” value [1, 6] was 18.8 s. The “Average Time-to-Max” value ([1]; 16 mM in Low Sodium Buffer pH 7.1, n = 33, listed as Sample 2) was 17 s and 17.7 s, the “Average Time-to-Max” value [1, 7] was 16.3 s and the “Average Intensity-at-Max” value [1, 5] was 45.3. The “Average Intensity-at-Max” value [1, 6] was 49.8, the “Average Intensity-at-Max” value ([1]; 16 mM in Low Sodium Buffer pH 7.1, n = 33) was 53.8 and the “Average Intensity-at-Max” value [1, 7] was 62.9.
